Data: patent US10723726B2, “Solid forms of (Z)-4-(5-((3-benzyl-4-oxo-2-thioxothiazolidin-5-ylidene)methyl)furan-2-yl)benzoic acid” (GB006, INC., priority 2015, dated 2020)
Entries after “also recorded” stand apart in the source; their conditions may differ. Where a name gives a salt, the structure may show the parent alone.

Key:
[1] = Aqueous solubility by equilibration, HPLC analysis; assay type: physicochemical; settings: for Aq solub: water, ambient temperature, slurried 4-5 days, corrected for weight of counter-ion
Method: An aliquot of the UHQ water test solvent (1 mL) was added to an accurately weighed sample of the LA1 salts and agitated at ambient temperature for a period of 4 days. A sample was withdrawn, filtered through a […], and analyzed by HPLC. HPLC was used to determine aqueous equilibrium solubility at ambient temperature. […] Samples were slurried in water for 4-5 days before analysis.

[2] = Humidity stress at 40° C./75% RH; assay type: physicochemical; settings: 5-6 days
Method: The larger vials were capped, sealed with Parafilm and placed inside an oven at 40° C. for up to 6 days. Salts were then removed from these conditions and changes observed (e.g. color, deliquescence etc.) before being analyzed for weight change and by XRPD. Samples were examined visually after stressing, form composition confirmed by XRPD analysis and weight change recorded (Table 7).

[3] = in vivo; settings: C57BL/6, mouse
Method: A mouse melanoma tumor cell line, B16-F10, was used for developing a subcutaneous tumor model. 0.1×10^6 cells were injected subcutaneously in the right flank region of the animal. When the tumors reached ˜45 mm^3 the animals were randomized into various groups, each group with 10 animals, so that the average tumor volume of all the groups was similar. Animals were treated from the day of randomization (Day 1). Tumor dimensions (length and diameter) were measured for all animals three times per week, including the termination day of the study. In addition, throughout the study period, mice were monitored daily for clinical conditions. […] Portions of the blood samples were used for blood analysis and clinical chemistry. Lung, heart, liver, spleen, and kidneys were also collected and histopathological analysis was performed.

[4] = rats; cited from earlier work
[5] = mice; cited from earlier work
[6] = in vivo; settings: male, beagle
Method: The PO (2 mg/kg) dose solution of micronized LA1 was prepared in 0.1% Tween-80 0.5% (w/v) and methyl cellulose in water.
The objective of the study was to investigate the preclinical pharmacokinetic profile of LA1 (micronized powder) in Beagle dog. To delineate the plasma concentration vs. time curve and characterize the relevant pharmacokinetic parameters to generate data on the PK properties viz., bioavailability, half-life (b1/2), volume of distribution, Cmax, Tmax, AUC and elimination rate constant of LA1 in Beagle dog.
LA1 was a coarse material which was micronized using laboratory scale ball mill. […] The micronized LA1 was recovered, weighed and stored in glass container at room temperature. For intravenous drug administration, LA1 excipient compatibility assay for dosing in dogs were carried out.
In brief, a known amount of LA1 was loaded to a cylindrical capped container made of stainless steel followed by addition of stainless steel balls. The ball mills were rotated on their axis for total of 60 minutes (6 cycles X 10 minutes). The micronized LA1 was recovered, weighed and stored in glass bottle at room temperature.
Test system: Healthy Beagle dog weighing 10-12 kg (age 10 months), males were used for the study. Crossover design was adopted for the experiments wherein 02 dogs were used in the study for oral and intravenous administration. Both the animals were housed stainless steel cage provided with a hopper to hold pellet feed and a separate water hopper. Temperature and humidity was maintained at 22±3° C. and 40-70%, respectively. The illumination was controlled to give a sequence of 12 h light and 12 h dark cycle. All the animals were adapted to the experimental conditions for at least 5 days prior to dosing. All animals were provided with Pedigree™ standard pellet feed, except for 10 to 12 h before treatment and 4 h after the drug administration. Water was provided ad libidum.
Formulation and drug administration: Exactly 90 mg of the test item LA1 (micronized powder) was weighed and transferred to a mortar and briefly triturated with pestle. Small volume of vehicle [0.5% (w/v) Carboxy methyl cellulose with 0.1% Tween-80] in water was then added slowly with continuous trituration until a uniform suspension was obtained. The content was then transferred into the measuring cylinder. The mortar was rinsed till the complete transfer of test item into the measuring cylinder was ensured. The final volume was then made up to 225 mL with vehicle to get a uniform suspension with desired concentration of 0.4 mg/mL. Dosing formulations were given by oral gavage at a dose volume not exceeding 5 mL/kg.
Intravenous drug formulation: Hemolysis assay using dog whole blood was employed to assess the damage of red blood cells for selection of excipient for intravenous dosing. […] Exactly 22.5 mg of the test item (micronized powder) was weighed into a graduated tube. 2.25 mL of DMSO was added drop wise and mixed by vortex. Then, 40.50 mL of Polyethylene glycol 400 (PEG-400) was added in two to three fragments and vortex intermittently. Then 2.25 mL Ethanol was added drop wise and vortex to get clear solution. The formulation was subjected to ultra-sonication for 5 minutes.
Sample collection: Serial method was used for blood sampling. Blood samples were collected as mentioned in the study design section (7). The blood sample (−1.5 mL) was collected from saphenous vein into labeled tubes, containing 2% w/v K2EDTA solution, as an anticoagulant.

[7] = Rat PK of LA1 free acid, first experiment (2-hydroxypropyl-β-cyclodextrin dose solution); assay type: in vivo, Sprague Dawley (SD) rats; settings: 30% 2-hydroxypropyl-β-cyclodextrin in PBS
Method: In a first experiment, the dose solution was prepared in 30% w:v 2-hydroxypropyl-β-cyclodextrin prepared in PBS at 2 mg/kg. Improved bioavailability was needed.

[8] = mouse, in vivo, po
Text: Mice were inoculated with B16F10 tumors as described above. Once the tumor volume reached around 45 mm^3, animals were randomized into various groups with 10 animals in all the groups so that the average tumor volume of each group was similar.
LA1 was combined with a solution containing 5% DMSO, 5% Solutol:ethanol (1:1), 20% Tween20, and 70% N-saline.

[9] = target: adenosine A2A receptor (Homo sapiens, UniProt P29274); assay: Adenosine A2A receptor agonist assay
[10] = after slurrying in water 4-5 days
[11] = Sprague Dawley, in vivo, PO 2 mg/kg

adenosine A2A receptor, sequence (P29274 whole entry): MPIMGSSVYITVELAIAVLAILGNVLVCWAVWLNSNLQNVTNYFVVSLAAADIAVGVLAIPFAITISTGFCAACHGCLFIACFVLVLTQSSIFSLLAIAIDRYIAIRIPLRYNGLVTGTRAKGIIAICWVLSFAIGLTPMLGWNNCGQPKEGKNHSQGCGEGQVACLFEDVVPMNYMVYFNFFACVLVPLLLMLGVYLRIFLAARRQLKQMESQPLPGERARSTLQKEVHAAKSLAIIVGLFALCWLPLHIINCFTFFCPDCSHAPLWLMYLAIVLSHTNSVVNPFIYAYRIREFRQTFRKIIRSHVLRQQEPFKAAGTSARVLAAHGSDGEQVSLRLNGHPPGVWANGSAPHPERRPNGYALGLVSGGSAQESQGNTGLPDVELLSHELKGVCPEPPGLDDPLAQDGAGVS

**Q.** With `O=C(O)c1ccc(-c2ccc(/C=C3\SC(=S)N(Cc4ccccc4)C3=O)o2)cc1` [LA1 choline salt] as the compound, how does the Appearance [1, 10] read?
**A.** Darker red color

**Q.** And the “Soln pH” value [1, 10]?
**A.** 8

**Q.** What about the “HPLC purity (%)” value ([1]; after slurrying in water 4-5 days (chemical stability)) of the same compound?
**A.** 75.51%

**Q.** What about the “Aq solub” value ([1]; listed as choline) of the same compound?
**A.** 7.052 mg/mL

**Q.** And the “Aq solub” value ([1]; listed as choline salt)?
**A.** 7.1 mg/mL

**Q.** What about the “Weight gain (%)” value [2] of the same compound?
**A.** 8.9%

**Q.** And the XRPD after stressing [2]?
**A.** phase change; also recorded: New pattern (Q)

**Q.** Which results are given for `O=C(O)c1ccc(-c2ccc(/C=C3\SC(=S)N(Cc4ccccc4)C3=O)o2)cc1` [LA1, (Z)-4-(5-((3-benzyl-4-oxo-2-thioxothiazolidin-5-ylidene)methyl)furan-2-yl)benzoic acid]?
**A.** concentration at 0.5 h ([3]; exposure in blood at end of study): 383 ± 450 ng/mL; concentration at 0.5 h ([3]; exposure in tumor at end of study): 24.7 ± 17.6 ng/mL; neointimal thickening upon vascular injury [4]: reduce neointimal thickening; renal ischemia/reperfusion injury [5]: reduce renal ischemia/reperfusion injury; Dog Cl [6]: 2.1 mL/min/kg; Dog F % (absolute oral bioavailability) [6]: 50%; AUC ([6]; dog, po, 2 mg/kg): 6.1 µM·h; Tmax ([6]; dog, po, 2 mg/kg): 4 h; AUC0-t ([6]; dog, po, 2 mg/kg, AUC0-12): 2570 ng·h/mL; Cmax ([6]; dog, po, 2 mg/kg, Cmax (peak concentration)): 685 ng/mL; half-life ([6]; dog, po, 2 mg/kg, t1/2 (hr), oral half-life): ~2 h; Rat Cl ([7]; PO - 2 mg/kg table): 11.1 mL/min/kg; Vss ([7]; PO - 2 mg/kg table): 0.59 L; AUC [7, 11]: 8.7 µM·h; MRT [7, 11]: 3.49 h; half-life [7, 11]: 2.03 h; bioavailability ([7]; Sprague Dawley, in vivo, PO 2 mg/kg, read-out: Rat F %): 15.1%; exposure in blood at end of study [8]: below the limit of quantitation; exposure in tumor at end of study [8]: below the limit of quantitation; efficacy in adenosine A2A receptor agonist assay [9]: shown efficacy
